According to BindingDB's records for doi:10.1016/j.bioorg.2016.07.005 (Hazara University, 2016):

Tests used:
Acetylcholinesterase = Acetylcholinesterase (Tetronarce californica, UniProt P04058); assay: Acetylcholinesterase Assay; details: pH 7.7
Experimental: Total volume of the reaction mixture was 100 µL. It contained 60 µL Na2HPO4 buffer with concentration of 50 mM and pH 7.7. 10 µL test compound (0.5 mM well-1) was added, followed by the addition of 10 µL (0.005 unit well-1) enzyme. […] Then contents were pre-incubated for 10 min at 37 °C. The reaction was initiated by the addition of 10 µL of 0.5 mM well-1 substrate (acetylthiocholine iodide), followed by the addition of 10 µL DTNB (0.5 mM well-1). […] All experiments were carried out with their respective controls in triplicate.

Cholinesterase = Cholinesterase (Homo sapiens, UniProt P06276); assay: Butyrylcholinesterase Assay; details: pH 7.7
Chain of Cholinesterase (P06276 whole entry): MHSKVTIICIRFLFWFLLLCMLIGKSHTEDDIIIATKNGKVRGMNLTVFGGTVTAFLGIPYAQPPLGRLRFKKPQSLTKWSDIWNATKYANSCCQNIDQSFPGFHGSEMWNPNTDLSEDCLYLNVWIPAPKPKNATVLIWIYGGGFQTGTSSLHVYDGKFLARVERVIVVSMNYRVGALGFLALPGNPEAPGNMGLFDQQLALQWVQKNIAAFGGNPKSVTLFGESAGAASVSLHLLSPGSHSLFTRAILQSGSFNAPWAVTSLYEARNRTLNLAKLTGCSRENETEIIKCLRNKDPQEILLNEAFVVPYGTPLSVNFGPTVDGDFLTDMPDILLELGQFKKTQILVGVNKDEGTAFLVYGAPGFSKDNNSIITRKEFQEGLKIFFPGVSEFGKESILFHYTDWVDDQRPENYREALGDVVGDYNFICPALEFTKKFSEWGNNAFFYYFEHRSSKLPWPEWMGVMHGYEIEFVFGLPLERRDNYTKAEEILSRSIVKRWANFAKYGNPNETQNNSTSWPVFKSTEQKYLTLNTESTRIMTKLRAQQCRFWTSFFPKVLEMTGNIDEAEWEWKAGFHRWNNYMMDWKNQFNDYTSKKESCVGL
Experimental: Total volume of the reaction mixture was 100 µL containing 60 µL, Na2HPO4 buffer, 50 mM and pH 7.7. Ten µL test compound 0.5 mM well-1 was added followedby the addition of 10 µL (0.5 unit well-1) BChE (Sigma Inc.). […] The reaction was initiated by the addition of 10 µL of 0.5 mM well-1 substrate (butyrylthiocholine chloride). Followed by the addition of 10 µL DTNB, 0.5 mM well-1. […] All experiments were carried out with their respective controls in triplicate.

Chain of Acetylcholinesterase (P04058 whole entry): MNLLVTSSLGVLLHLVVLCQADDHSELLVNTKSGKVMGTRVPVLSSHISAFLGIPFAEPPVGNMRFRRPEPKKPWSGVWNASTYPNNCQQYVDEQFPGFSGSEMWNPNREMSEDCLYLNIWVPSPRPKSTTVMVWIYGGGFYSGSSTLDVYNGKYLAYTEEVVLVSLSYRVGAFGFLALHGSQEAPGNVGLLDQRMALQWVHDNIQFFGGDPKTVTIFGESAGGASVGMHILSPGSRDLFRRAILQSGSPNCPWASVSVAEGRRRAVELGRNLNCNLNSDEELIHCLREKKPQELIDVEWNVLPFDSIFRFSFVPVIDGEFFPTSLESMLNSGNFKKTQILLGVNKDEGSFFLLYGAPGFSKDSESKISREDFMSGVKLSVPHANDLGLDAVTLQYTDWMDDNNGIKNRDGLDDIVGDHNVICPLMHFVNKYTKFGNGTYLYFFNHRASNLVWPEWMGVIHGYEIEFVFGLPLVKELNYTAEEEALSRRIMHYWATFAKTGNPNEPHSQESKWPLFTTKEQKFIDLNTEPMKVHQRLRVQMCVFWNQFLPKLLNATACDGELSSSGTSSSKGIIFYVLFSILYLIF

| Structure (SMILES) | IC50 (Acetylcholinesterase) [µM] | IC50 (Cholinesterase) [µM] |
| --- | --- | --- |
| CCOc1ccccc1/C=N\NC(=O)c1ccccc1O [N'-[(Z)-(2-ethoxyphenyl)methylidene]-2-hydroxybenzohydrazide (20)] | 415 | 116 |
| O=C(N/N=C\c1ccco1)c1ccccc1O [N'-[(Z)-2-furylmethylidene]-2-hydroxybenzohydrazide (11)] |  | 418 |
| CCCCOc1ccc(/C=N\NC(=O)c2ccccc2O)cc1 [N0-[(Z)-(4-butoxyphenyl)methylidene]-2-hydroxybenzohydrazide (7)] | 15.4 | 41.8 |
| O=C(N/N=C\c1ccc(C(F)(F)F)cc1)c1ccccc1O [2-Hydroxy-N'-{(Z)-[4-(trifluoromethyl)phenyl]methylidene} benzohydrazide (18)] | 48.5 | 213 |
| COc1ccc(/C=N\NC(=O)c2ccccc2O)cc1OCc1ccccc1 [N'-{(Z)-[3-(benzyloxy)-4-methoxyphenyl]methylidene}-2-hydroxybenzohydrazide (16)] |  | 86.2 |
| O=C(N/N=C\c1cccc(Br)c1)c1ccccc1O [N'-[(Z)-(3-bromophenyl)methylidene]-2-hydroxybenzohydrazide (19)] | 156 | 121 |
| O=C(N/N=C\c1ccc(F)c(Br)c1)c1ccccc1O [N'-[(Z)-(3-bromo-4-fluorophenyl)methylidene]-2-hydroxybenzohydrazide (25)] | 311 |  |
| COc1cccc(OC)c1/C=N\NC(=O)c1ccccc1O [N'-[(Z)-(2,6-dimethoxyphenyl)methylidene]-2-hydroxybenzohydrazide (2)] | 461 | 79.5 |
| CSc1ccc(/C=N\NC(=O)c2ccccc2O)cc1 [2-Hydroxy-N'-{(Z)-[4-(methylsulfanyl)phenyl]methylidene} benzohydrazide (22)] | 436 |  |
| O=C(N/N=C\c1ccc(Br)cc1F)c1ccccc1O [N'-[(Z)-(4-bromo-2-fluorophenyl)methylidene]-2-hydroxybenzohydrazide (26)] | 369 | 452 |
| O=C(N/N=C\c1ccc(O)cc1)c1ccccc1O [2-Hydroxy-N'-[(Z)-(4-hydroxyphenyl)methylidene]benzohydrazide (28)] |  | 424 |
| CC(C)c1ccc(/C=N\NC(=O)c2ccccc2O)cc1 [2-Hydroxy-N'-[(Z)-(4-isopropylphenyl)methylidene]benzohydrazide (12)] | 39.8 | 71.8 |
| O=C(N/N=C\c1cc(F)ccc1Br)c1ccccc1O [N'-[(Z)-(2-bromo-5-fluorophenyl)methylidene]-2-hydroxybenzohydrazide (21)] | 312 | 267 |
| O=C(N/N=C\c1cccc(O)c1)c1ccccc1O [2-Hydroxy-N'-[(Z)-(3-hydroxyphenyl)methylidene]benzohydrazide (27)] | 355 |  |
| COc1cccc(/C=N\NC(=O)c2ccccc2O)c1OC [N'-[(Z)-(2,3-dimethoxyphenyl)methylidene]-2-hydroxybenzohydrazide (15)] |  | 61.6 |
| O=C(N/N=C\c1ccc(OCc2ccccc2)cc1)c1ccccc1O [N'-{(Z)-[4-(benzyloxy)phenyl]methylidene}-2-hydroxybenzohydrazide (3)] | 8.12 | 37.8 |
| O=C(N/N=C\c1ccc(Cl)cc1Cl)c1ccccc1O [N'-[(Z)-(2,4-dichlorophenyl)methylidene]-2-hydroxybenzohydrazide (6)] | 18.1 | 43.2 |
| COc1ccc(/C=N\NC(=O)c2ccccc2O)cc1Br [N'-[(Z)-(3-bromo-4-methoxyphenyl)methylidene]-2-hydroxybenzohydrazide (17)] | 19.8 | 38.4 |
| O=C(N/N=C\c1c2ccccc2cc2ccccc12)c1ccccc1O [(Z)-N'-(anthracen-10-ylmethylene)-2-hydroxybenzohydrazide (10)] | 4.12 |  |
| CC(C)(C)c1ccc(/C=N\NC(=O)c2ccccc2O)cc1 [N'-{(Z)-[4-(tert-butyl)phenyl]methylidene}-2-hydroxybenzohydrazide (13)] | 92.4 | 6.51 |
| CCOc1ccc(/C=N\NC(=O)c2ccccc2O)cc1 [N'-[(Z)-(4-ethoxyphenyl)methylidene]-2-hydroxybenzohydrazide (8)] | 218 | 116 |
| O=C(N/N=C\c1cccs1)c1ccccc1O [2-Hydroxy-N'-[(Z)-2-thienylmethylidene]benzohydrazide (23)] | 430 |  |
| COc1ccc(/C=N\NC(=O)c2ccccc2O)c(OC)c1 [N'-[(Z)-(2,4-dimethoxyphenyl)methylidene]-2-hydroxybenzohydrazide (9)] |  | 293 |
| O=C(N/N=C\c1cccc(C(F)(F)F)c1)c1ccccc1O [2-Hydroxy-N'-{(Z)-[3-(trifluoromethyl)phenyl]methylidene} benzohydrazide (14)] | 56.1 | 112 |
| O=C(N/N=C\c1cc(Cl)cc(Cl)c1O)c1ccccc1O [N'-[(Z)-(3,5-dichloro-2-hydroxyphenyl)methylidene]-2-hydroxybenzohydrazide (24)] | 8.41 | 9.22 |
